Assay: Excipient screen (fillers, disintegrants, glidants, lubricants): tablets evaluated at accelerated conditions
Format: physicochemical
Conditions: tablets at accelerated conditions (40° C./75% RH); for filler the active ingredient is compatible with: physical characteristics and content of active ingredient
Protocol: Experiments to screen fillers, disintegrants, glidants and lubricants were conducted for the composition according to the present invention. Tablets were evaluated for physical characteristics and content of active ingredient at accelerated conditions (40° C./75% RH). The assay values were analysed statistically. […] Of all lubricants examined, chlorambucil was most compatible with stearic acid.

Row | SMILES | lubricant the active ingredient is most compatible with (of all lubricants examined) | filler the active ingredient is compatible with
1 | O=C(O)CCCc1ccc(N(CCCl)CCCl)cc1 [chlorambucil, 4-[bis(2-chloroethyl)amino]-benzenebutanoic acid] | stearic acid | a mixture of anhydrous lactose and microcrystalline cellulose
2 | N[C@@H](Cc1ccc(N(CCCl)CCCl)cc1)C(=O)O [melphalan, 4-[bis(2-chloroethyl)amino]-L-phenylalanine] | – | microcrystalline cellulose
